# Reference: patent publication US11028072B2, “2,4-diamino-6-ethylpyrimidine derivatives with antimalarial activities against Plasmodium falciparum” (National Science and Technology Development Agency, priority 2015, dated 2021)
# Like-named read-outs stand apart in the source and are kept apart here.
# How the values were obtained:
# [1] = in vitro; conditions: African green monkey
# From the text: (§1) In Vitro Antimalarial Activites Against P. falciparum and Cytotoxicity Towards Mammalian Cells (Vero Cells)
# [2] = molecular target: T1, Human dihydrofolate reductase (hDHFR) (Homo sapiens, UniProt P00374); assay: Inhibition of human dihydrofolate reductase (Ki); assay type: biochemical; conditions: human DHFR; hydrochloride salts
# T1 sequence (P00374 1-187): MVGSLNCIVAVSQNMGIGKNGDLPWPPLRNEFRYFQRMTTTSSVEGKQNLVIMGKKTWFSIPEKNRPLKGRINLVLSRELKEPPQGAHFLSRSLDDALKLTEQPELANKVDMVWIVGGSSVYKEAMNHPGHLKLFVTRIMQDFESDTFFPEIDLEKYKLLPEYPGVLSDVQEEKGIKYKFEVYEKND
# [3] = molecular target: wild type (WT) pfDHFR (Plasmodium falciparum, UniProt P13922, N108S/R59C); assay: Inhibition of wild type pfDHFR (Ki); assay type: biochemical
# Protocol: (§2) The synthesized 2,4-diamino-6-ethylpyrimdine derivatives as the hydrochloride salts were tested for the activities against Plasmodium falciparum (P. falciparum) according to the standard methods. These include the inhibition of dihydrofolate reductase (DHFR) enzymes of P. falciparum including, wild type (WT) and quadruple mutants (N51IC59RS108NI164L) (QM). The inhibition was expressed as inhibition constants (Ki) in nano molar (nM).
# [4] = molecular target: quadruple mutant N51I + C59R + S108N + I164L (QM) pfDHFR (Plasmodium falciparum, UniProt P13922, I164L/N51I); assay: Inhibition of quadruple mutant pfDHFR (Ki); assay type: biochemical
# Protocol: as §2
# [5] = test system: P. falciparum TM4/8.2 (wild type); assay: microbe, parasite or virus in culture; assay type: cell-based, Plasmodium falciparum; conditions: Plasmodium falciparum, read-out: IC50 P. falciparum TM4/8.2 (WT)
# From the text: as §1
# [6] = test system: P. falciparum V1/S (N51I + C59R + S108 + I164L); assay: microbe, parasite or virus in culture; assay type: cell-based, Plasmodium falciparum; conditions: Plasmodium falciparum, read-out: IC50 P. falciparum V1/S
# From the text: as §1
# [7] = in vitro, wild-type strain TM4/8.2
# [8] = in vitro, quadruple mutant strain V1/S
# wild type (WT) pfDHFR, sequence (P13922 whole entry R59C/N108S): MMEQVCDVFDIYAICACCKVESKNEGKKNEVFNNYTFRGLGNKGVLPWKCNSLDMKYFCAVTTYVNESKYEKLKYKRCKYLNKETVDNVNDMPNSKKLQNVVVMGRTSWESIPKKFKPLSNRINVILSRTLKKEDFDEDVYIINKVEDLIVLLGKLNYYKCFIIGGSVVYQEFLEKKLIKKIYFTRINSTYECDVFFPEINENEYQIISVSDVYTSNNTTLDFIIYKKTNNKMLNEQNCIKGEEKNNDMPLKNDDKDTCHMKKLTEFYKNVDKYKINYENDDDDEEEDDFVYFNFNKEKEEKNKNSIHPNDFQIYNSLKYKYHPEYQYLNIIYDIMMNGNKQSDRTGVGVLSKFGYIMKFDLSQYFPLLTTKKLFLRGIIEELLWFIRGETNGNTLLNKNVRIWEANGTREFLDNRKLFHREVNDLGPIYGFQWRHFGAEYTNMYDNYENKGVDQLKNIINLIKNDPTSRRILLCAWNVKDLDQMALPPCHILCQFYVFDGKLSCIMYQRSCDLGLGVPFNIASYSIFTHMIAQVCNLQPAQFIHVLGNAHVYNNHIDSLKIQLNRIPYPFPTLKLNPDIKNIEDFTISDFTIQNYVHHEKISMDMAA
# quadruple mutant N51I + C59R + S108N + I164L (QM) pfDHFR, sequence (P13922 whole entry N51I/I164L): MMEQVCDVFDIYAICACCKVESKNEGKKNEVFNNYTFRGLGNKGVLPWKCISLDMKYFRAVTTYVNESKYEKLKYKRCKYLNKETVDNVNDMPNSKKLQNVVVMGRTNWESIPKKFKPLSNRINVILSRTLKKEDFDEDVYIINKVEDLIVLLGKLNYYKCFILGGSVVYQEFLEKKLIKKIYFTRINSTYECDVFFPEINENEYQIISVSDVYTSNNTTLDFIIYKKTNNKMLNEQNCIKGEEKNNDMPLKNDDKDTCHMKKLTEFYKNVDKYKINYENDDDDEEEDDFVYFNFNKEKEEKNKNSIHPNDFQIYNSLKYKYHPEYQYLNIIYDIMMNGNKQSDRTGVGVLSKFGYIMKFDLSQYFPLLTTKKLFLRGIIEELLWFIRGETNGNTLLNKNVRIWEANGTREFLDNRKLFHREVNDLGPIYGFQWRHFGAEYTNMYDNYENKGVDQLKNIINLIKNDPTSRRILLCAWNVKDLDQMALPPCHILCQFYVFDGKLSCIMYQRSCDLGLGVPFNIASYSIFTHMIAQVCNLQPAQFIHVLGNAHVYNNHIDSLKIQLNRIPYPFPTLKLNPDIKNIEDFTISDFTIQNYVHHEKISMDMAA
SMILES,IC50 [1] [nM],Ki [2] [nM],Ki [3] [nM],Ki [4] [nM],"IC50 [5, 7] [nM]","IC50 [6, 8] [nM]",IC50 [5] [nM],IC50 [6] [nM],Ki hDHFR [2],"Ki pfDHFR N51I + C59R + S108N + I164L (QM) ([4]; quadruple mutant pfDHFR, hydrochloride salts)"
CCc1nc(N)nc(N)c1OCCc1coc(-c2ccc(C(=O)O)cc2)n1 [Compound 59],> 10000,17.4 ± 1.14,0.26 ± 0.01,1.56 ± 0.07,52 ± 10,> 10000,–,–,–,–
CCc1nc(N)nc(N)c1OCc1csc(-c2ccc(OCC(=O)O)cc2)n1 [Compound 73],> 50000,357 ± 34.4,0.65 ± 0.14,28.9 ± 2.56,41 ± 6,> 50000,–,–,–,–
CCc1nc(N)nc(N)c1OCc1cn(-c2ccc([N+](=O)[O-])cc2)nn1 [Compound 17],> 50000,> 500000,42.7 ± 0.99,1990 ± 318,4250 ± 1370,14900 ± 3820,–,–,–,–
CCc1nc(N)nc(N)c1OCCCc1cc(-c2cccc(C(=O)OC)c2)no1 [Compound 48],760,25.2 ± 8.9,0.26 ± 0.07,0.87 ± 0.15,45 ± 1.5,100 ± 30,–,–,–,–
CCc1nc(N)nc(N)c1OCc1csc(-c2cccc(C(=O)OC)c2)n1 [Compound 65],> 50000,195 ± 8.2,0.51 ± 0.04,56.7 ± 5.79,–,–,400 ± 80,> 50000,–,–
CCc1nc(N)nc(N)c1-c1cn(CCOc2ccc(Cl)cc2)nn1 [Compound 9],47400 ± 11600,1670 ± 59.5,1.14 ± 0.06,10.8 ± 1.02,–,–,2240 ± 600,15900 ± 5630,–,–
CCc1nc(N)nc(N)c1OCCc1csc(-c2ccccc2)n1 [Compound 76],1330 ± 460,21 ± 1.24,0.94 ± 0.16,7.28 ± 0.69,11 ± 2,17800 ± 6800,–,–,–,–
CCc1nc(N)nc(N)c1OCc1cn(Cc2ccc(O)cc2)nn1 [Compound 28],> 1000,–,53.7 ± 5.6,–,> 1000,> 1000,–,–,High,High
CCc1nc(N)nc(N)c1OCc1coc(-c2cccc(C)c2)n1 [Compound 51],75900 ± 11000,256 ± 9.25,0.44 ± 0.05,48 ± 1.54,830 ± 50,21900 ± 5880,–,–,–,–
CCc1nc(N)nc(N)c1OCc1cc(-c2cccc(C(=O)O)c2)no1 [Compound 40],> 50000,279 ± 24.7,1.28 ± 0.13,2.12 ± 0.17,280 ± 130,3380 ± 1060,–,–,–,–
CCc1nc(N)nc(N)c1OCc1cn(-c2cccc(C(=O)OC)c2)nn1 [Compound 15],> 50000,–,1.85 ± 0.36,208 ± 16.6,730 ± 230,17600 ± 1500,–,–,High,–
CCc1nc(N)nc(N)c1OCCCc1cc(-c2ccc(Cl)cc2)no1 [Compound 45],> 50000,37 ± 5.36,1.99 ± 0.43,3.9 ± 0.68,270 ± 80,6370 ± 1970,–,–,–,–
CCc1nc(N)nc(N)c1OCc1csc(-c2ccc(F)cc2)n1 [Compound 69],> 25000,318 ± 29.7,0.9 ± 0.18,45.6 ± 4.68,790 ± 380,> 25000,–,–,–,–
CCc1nc(N)nc(N)c1OCc1cn(-c2cccc([N+](=O)[O-])c2)nn1 [Compound 14],> 50000,> 500000,8.62 ± 1.15,237 ± 41.7,3420 ± 610,4430 ± 1130,–,–,–,–
CCc1nc(N)nc(N)c1-c1cn(CCc2ccccc2)nn1 [Compound 7],> 50000,3220 ± 86.2,2.24 ± 0.1,70.1 ± 6.92,–,–,2620 ± 330,> 50000,–,–
CCc1nc(N)nc(N)c1-c1cn(Cc2ccc(OC(=O)N(c3ccccc3)c3ccccc3)cc2)nn1 [Compound 6],> 25000,–,10.3 ± 1.69,17.5 ± 2.19,5590 ± 1540,4310 ± 930,–,–,High,–
CCc1nc(N)nc(N)c1OCc1csc(-c2cccc([N+](=O)[O-])c2)n1 [Compound 62],17900 ± 6230,134 ± 7.24,0.74 ± 0.07,53.2 ± 8.93,460 ± 70,3980 ± 520,–,–,–,–
